From patent US6696407B1, “Huntington's disease treatment comprising administering aldose reductase inhibitors to increase striatal CNTF” (The Regents of the University of California, priority 1997, dated 2004)
“Also recorded” adds a separate entry of the source. Marks after values point to notes of the source that are not given here.

Columns and labels:
Type in all cases: in vivo, rat
[1] = test system: CNTF mRNA; assay: Sciatic nerve CNTF mRNA by Northern blot; settings: control and galactose-fed rats
Description: These studies were conducted with the approval of the San Diego Veterans Administration Animal Studies Subcommittee. Female Sprague-Dawley rats (240-300 g; Charles River, San Diego, Calif.) were housed in cages with wire bottoms to reduce contact with urine and feces. Groups were established and fed either a 40% D-galactose diet or a control diet specially formulated by Purina that contained 40% solka floc, a nonnutritive fiber, to balance nutritional intake. All diets contained 100% of the micronutrients required by rats and, with water, were available ad libitum. Each of these diet groups contained animals that were treated with the ARI, Ponalrestat (50 mg/kg), daily by oral gavage. […] Under deep anesthesia, motor nerve conduction velocity (MNCV) was measured in the left hindlimb prior to removal of the sciatic nerve. […]
CNTF mRNA levels in sciatic nerve were obtained by first homogenizing 1 cm segments of nerve on ice for 30 seconds in 4 M guanidine thiocyanate containing 0.1 M β-mercaptoethanol, 25 mM sodium citrate and 0.5% sarcosyl (pH 7.0). […] Autoradiographic bands were quantified using an Ultrascan XL laser densitometer (LKB, Uppsala, Sweden). Ratios of CNTF:GAPDH were determined using optical densities in the linear range for both probes.

[2] = test system: CNTF; assay: Sciatic nerve CNTF protein by ELISA; settings: P<0.05
Description: (§1) These studies were conducted with the approval of the San Diego Veterans Administration Animal Studies Subcommittee. Female Sprague-Dawley rats (240-300 g; Charles River, San Diego, Calif.) were housed in cages with wire bottoms to reduce contact with urine and feces. Groups were established and fed either a 40% D-galactose diet or a control diet specially formulated by Purina that contained 40% solka floc, a nonnutritive fiber, to balance nutritional intake. All diets contained 100% of the micronutrients required by rats and, with water, were available ad libitum. Each of these diet groups contained animals that were treated with the ARI, Ponalrestat (50 mg/kg), daily by oral gavage. After two months, rats were anesthetized by intraperitoneal injection (1 ml/kg ip) of pentobarbital sodium (12.5 mg/ml) and diazepam (1.25 mg/ml) in bacteriostatic saline. Under deep anesthesia, motor nerve conduction velocity (MNCV) was measured in the left hindlimb prior to removal of the sciatic nerve. […]
CNTF protein was determined with an ELISA that utilizes a monoclonal capture antibody which recognizes a non-C-terminal epitope on both rat and human CNTF (Regeneron, Tarrytown, N.Y.). […] The reaction was stopped with 0.5 N H2SO4 and the plates read at two wavelengths (490 nm and 650 nm).

[3] = test system: aldose reductase; assay: Sciatic nerve polyol content by gas chromatography
Description: These studies were conducted with the approval of the San Diego Veterans Administration Animal Studies Subcommittee. Female Sprague-Dawley rats (240-300 g; Charles River, San Diego, Calif.) were housed in cages with wire bottoms to reduce contact with urine and feces. Groups were established and fed either a 40% D-galactose diet or a control diet specially formulated by Purina that contained 40% solka floc, a nonnutritive fiber, to balance nutritional intake. All diets contained 100% of the micronutrients required by rats and, with water, were available ad libitum. Each of these diet groups contained animals that were treated with the ARI, Ponalrestat (50 mg/kg), daily by oral gavage. After two months, rats were anesthetized by intraperitoneal injection (1 ml/kg ip) of pentobarbital sodium (12.5 mg/ml) and diazepam (1.25 mg/ml) in bacteriostatic saline. Under deep anesthesia, motor nerve conduction velocity (MNCV) was measured in the left hindlimb prior to removal of the sciatic nerve. The proximal portion was processed for subsequent light microscopic examination and the distal portion used for gas chromatographic analysis of nerve polyols. The contralateral sciatic nerve was removed and used for assay of CNTF-like neurotrophic activity and either Northern blot or ELISA analysis of CNTF mRNA or protein, respectively.
(§2) For determination of water content and dry weight, distal segments of sciatic nerve were lightly blotted, weighed prior to freeze-drying and reweighed. Nerve polyols were measured by gas chromatography with α-methylmannoside as an internal standard (Mizisin et al., (1993) J. Neurol. Sci. 116:67-72) using a Hewlett Packard 5890 gas chromatograph (Hewlett Packard, Avondale, Pa.) fitted with a flame ionization detector and a 25 m×0.2 mm capillary column (Hewlett Packard Ultra 1). Nerve water and polyol contents are expressed as mg and nmol per mg nerve dry weight, respectively.
Data are presented as mean ±SD (N=8 to 10) and were analyzed with a one way ANOVA after which multiple comparisons were made with the Student-Newman-Keuls test. Mean dulcitol levels were compared with an unpaired, two-tailed t test. Control and animals received a diet containing 0% D-galactose and galactose animals a diet containing 40% D-galactose for two months.

[4] = test system: CNTF; assay: Striatal CNTF levels by ELISA; settings: adult rats, oral 50 mg/kg/day for two months
Description: CNTF protein was determined with an ELISA that utilizes a monoclonal capture antibody which recognizes a non-C-terminal epitope on both rat and human CNTF (Regeneron, Tarrytown, N.Y.). The captured CNTF was recognized by a polyclonal rabbit anti-rCNTF reporter antibody. An alkaline phosphatase-tagged goat anti-rabbit IgG was used to generate the signal. In practice, 96-well Immulon plates were coated with capture antibody overnight, then blocked and washed. After overnight incubation of standards and samples, plates were washed and reporter antibody added. Following final washes, the reaction was developed using the GIBCO BRL ELISA amplification system substrate and amplifier. The reaction was stopped with 0.5 N H2SO4 and the plates read at two wavelengths (490 nm and 650 nm).
ARIs Toirestat and Ponalrestat were orally administered to adult rats at a dose of 50 mg/kg/day for two months as described in Example 1 and in Mizisin et al (1997) Diabetes 46: 647-652. For each rat, the left and right striatum were dissected and combined for homogenization in phosphate buffered saline. CNTF levels in extract preparations were then measured by ELISA, as described in Example 1. Four rats served as controls, and five rats each received Tolrestat and Ponalrestat. Five ELISA assays were run for each rat and one mean value derived for each rat.

[5] = Sciatic nerve water content; settings: for Water: sciatic nerve, Ponalrestat 50 mg/kg daily oral, two months
Description: as §1, §2
The effect of two months of galactose feeding and ARI treatment on body weight, nerve water and polyol content, and MNCV is shown in Table 1. Data are presented as mean ±SD (N=8 to 10) and were analyzed with a one way ANOVA after which multiple comparisons were made with the Student-Newman-Keuls test. […] ARI-treated animals received a daily oral gavage (50 mg/kg) of Ponalrestat (ND—Not detected).

[6] = sciatic nerve, 40% D-galactose diet rats, Ponalrestat 50 mg/kg daily oral, two months

For O=C(O)Cc1nn(Cc2ccc(Br)cc2F)c(=O)c2ccccc12 [Ponalrestat, 3-(4-bromo-2-fluorobenzyl)-4-oxo-3H-phthalazin-1-ylacetic acid], the “Level of CNTF message, CNTF:GAPDH ratios” value [1] was “no marked effect”, the “Increase of CNTF detected by ELISA relative to untreated control rats” value ([2]; control animals) was 50% and the “Increase of CNTF detected by ELISA relative to untreated control rats” value ([2]; galactose-fed animals) was 50%. For the same compound, the “Dulcitol accumulation (in words)” value ([3]; galactose-fed rats) was “attenuated”, the “Nerve myo-inositol content (in words)” value ([3]; galactose-fed rats) was “restored” and the Dulcitol [3, 6] was 12.2 ± 3.8 nmol/mg dry wt. For the same compound, the myo-Inositol [3, 6] was 9.4 ± 1.9^a nmol/mg dry wt, the myo-Inositol ([3]; sciatic nerve, control diet rats, Ponalrestat 50 mg/kg daily oral, two months) was 12.3 ± 1.5^b nmol/mg dry wt and the “Increase in striatal CNTF activity level versus control group” value [4] was “significantly increased; also recorded: approximately three-fold”. The “Nerve water content (in words)” value ([5]; galactose-fed rats) was “restored”, the Water ([5]; 40% D-galactose diet rats) was 1.8 ± 0.3^a mg/mg dry wt and the Water ([5]; control diet rats) was 1.8 ± 0.1^a mg/mg dry wt.
